This note sets out measurements from ChEMBL document CHEMBL4507266, “Data for DCP probe BAY-784” (2021).

Assay [1] addresses 3-hydroxy-3-methylglutaryl-coenzyme A reductase (Homo sapiens) (UniProt P04035). The assay is described as follows: Inhibition of HMG-CoA Reductase at compound concentration of 10.0 uM in the Eurofins-Panlabs enzyme assay (Eurofins_assay_124010). The note with it: Compound concentration 10.0 uM. Details: substrate with concentration.
For assay [2], the target named is Beta-1 adrenergic receptor (Homo sapiens) (UniProt P08588). The note with it: Compound concentration 10.0 uM.
Assay [3] relates to Tyrosine-protein kinase ABL1 (Homo sapiens), P00519 [F317I]. The note with it: Compound concentration 1000.0 nM.
Sequence of Tyrosine-protein kinase ABL1 (Homo sapiens), P00519 [F317I] (P00519 whole entry F317I): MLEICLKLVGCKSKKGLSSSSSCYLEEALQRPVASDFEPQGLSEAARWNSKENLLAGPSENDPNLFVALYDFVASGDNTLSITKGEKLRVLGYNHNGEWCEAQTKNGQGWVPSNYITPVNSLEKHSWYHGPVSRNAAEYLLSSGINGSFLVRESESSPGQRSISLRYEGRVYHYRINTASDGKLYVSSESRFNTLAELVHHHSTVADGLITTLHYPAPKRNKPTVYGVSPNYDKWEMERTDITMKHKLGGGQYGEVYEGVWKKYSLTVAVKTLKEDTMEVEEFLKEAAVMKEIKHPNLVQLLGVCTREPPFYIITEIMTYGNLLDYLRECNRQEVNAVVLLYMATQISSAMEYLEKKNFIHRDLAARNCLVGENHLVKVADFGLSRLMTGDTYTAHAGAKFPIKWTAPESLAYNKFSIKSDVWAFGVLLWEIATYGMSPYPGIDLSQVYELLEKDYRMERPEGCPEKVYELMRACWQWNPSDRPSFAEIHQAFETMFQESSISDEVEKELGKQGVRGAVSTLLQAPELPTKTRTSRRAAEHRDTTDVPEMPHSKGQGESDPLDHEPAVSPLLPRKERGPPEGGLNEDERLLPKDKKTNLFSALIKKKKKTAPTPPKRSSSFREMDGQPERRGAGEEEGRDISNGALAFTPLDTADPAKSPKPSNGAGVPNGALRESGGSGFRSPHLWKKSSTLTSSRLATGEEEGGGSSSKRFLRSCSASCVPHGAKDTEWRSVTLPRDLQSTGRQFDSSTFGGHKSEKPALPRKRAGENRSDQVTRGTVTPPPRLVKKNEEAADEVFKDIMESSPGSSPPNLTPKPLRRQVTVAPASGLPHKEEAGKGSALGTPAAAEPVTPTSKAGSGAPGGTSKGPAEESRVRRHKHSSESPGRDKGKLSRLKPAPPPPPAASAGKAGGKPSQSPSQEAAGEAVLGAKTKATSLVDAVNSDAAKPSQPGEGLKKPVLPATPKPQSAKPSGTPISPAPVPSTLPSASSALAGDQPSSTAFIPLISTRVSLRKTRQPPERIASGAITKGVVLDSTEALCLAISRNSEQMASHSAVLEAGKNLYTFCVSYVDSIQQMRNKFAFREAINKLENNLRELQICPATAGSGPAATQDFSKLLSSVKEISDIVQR
Assay [4] addresses Adenosine Transporter (Cavia porcellus) (UniProt H0V4R7+H0UUG1+H0V3Z5). The assay is described as follows: Inhibition of Transporter, Adenosine at compound concentration of 10.0 uM in the Eurofins-Panlabs radioligand binding assay (Eurofins_assay_202000). The class given is protein assay. More on the design: ligand concentration 0.5 nM, non-specific ligand with concentration 5 uM Nitrobenzylthioinosine, incubation time 30 min, incubation temperature 25 C. The note with it: Compound concentration 10.0 uM.

Assay [5] concerns the target T1, 5-hydroxytryptamine receptor 2C (Homo sapiens) (UniProt P28335).
T1 sequence (whole entry): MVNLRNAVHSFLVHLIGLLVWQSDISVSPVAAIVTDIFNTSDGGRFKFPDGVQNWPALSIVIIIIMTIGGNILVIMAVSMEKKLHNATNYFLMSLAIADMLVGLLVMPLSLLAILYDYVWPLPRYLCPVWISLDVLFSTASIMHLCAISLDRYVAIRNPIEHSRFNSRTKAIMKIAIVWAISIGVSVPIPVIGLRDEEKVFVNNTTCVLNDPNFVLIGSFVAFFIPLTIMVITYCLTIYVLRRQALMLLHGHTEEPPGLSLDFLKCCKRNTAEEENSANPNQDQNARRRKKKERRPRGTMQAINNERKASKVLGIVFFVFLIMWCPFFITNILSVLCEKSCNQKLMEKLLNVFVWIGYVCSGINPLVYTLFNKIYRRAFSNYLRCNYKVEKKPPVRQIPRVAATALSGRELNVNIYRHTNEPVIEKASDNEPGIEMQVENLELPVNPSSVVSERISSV
The note with it: Compound concentration 10.0 uM.

A further assay addresses Cannabinoid receptor 1 (Homo sapiens, UniProt P21554).
Assay [6] concerns the target Protein phosphatase 3 catalytic subunit alpha (Homo sapiens) (UniProt Q08209). The assay is described as follows: Inhibition of Protein Serine/threonine Phosphatase, PPP3CA (Calcineurin, PP2B) […] in the Eurofins-Panlabs enzyme assay (Eurofins_assay_188020). Details: substrate with concentration. The note with it: Compound concentration 10.0 uM.
Assay [7] has as its target Melanocortin receptor 3 (Homo sapiens) (UniProt P41968). The assay is described as follows: Inhibition of Melanocortin MC3 at 10 µM in the Eurofins-Panlabs radioligand binding assay (Eurofins_assay_251300). Details: ligand concentration 0.035 nM. The note with it: Compound concentration 10.0 uM.
The target in assay [8] is Sodium-dependent dopamine transporter (Homo sapiens) (UniProt Q01959). The note with it: Compound concentration 10.0 uM.
The species entered for a further assay is Rattus norvegicus. The assay is described as follows: Inhibition of Glutamate, NMDA, Phencyclidine at 10 µM in the Eurofins-Panlabs radioligand binding assay (Eurofins_assay_233000). The class given is protein-complex assay. The note with it: Compound concentration 10.0 uM.
Assay [9] deals with Cyclin-dependent kinase-like 5 (Homo sapiens) (UniProt O76039). The note with it: Compound concentration 1000.0 nM.
Sequence of Cyclin-dependent kinase-like 5 (Homo sapiens) (O76039 whole entry): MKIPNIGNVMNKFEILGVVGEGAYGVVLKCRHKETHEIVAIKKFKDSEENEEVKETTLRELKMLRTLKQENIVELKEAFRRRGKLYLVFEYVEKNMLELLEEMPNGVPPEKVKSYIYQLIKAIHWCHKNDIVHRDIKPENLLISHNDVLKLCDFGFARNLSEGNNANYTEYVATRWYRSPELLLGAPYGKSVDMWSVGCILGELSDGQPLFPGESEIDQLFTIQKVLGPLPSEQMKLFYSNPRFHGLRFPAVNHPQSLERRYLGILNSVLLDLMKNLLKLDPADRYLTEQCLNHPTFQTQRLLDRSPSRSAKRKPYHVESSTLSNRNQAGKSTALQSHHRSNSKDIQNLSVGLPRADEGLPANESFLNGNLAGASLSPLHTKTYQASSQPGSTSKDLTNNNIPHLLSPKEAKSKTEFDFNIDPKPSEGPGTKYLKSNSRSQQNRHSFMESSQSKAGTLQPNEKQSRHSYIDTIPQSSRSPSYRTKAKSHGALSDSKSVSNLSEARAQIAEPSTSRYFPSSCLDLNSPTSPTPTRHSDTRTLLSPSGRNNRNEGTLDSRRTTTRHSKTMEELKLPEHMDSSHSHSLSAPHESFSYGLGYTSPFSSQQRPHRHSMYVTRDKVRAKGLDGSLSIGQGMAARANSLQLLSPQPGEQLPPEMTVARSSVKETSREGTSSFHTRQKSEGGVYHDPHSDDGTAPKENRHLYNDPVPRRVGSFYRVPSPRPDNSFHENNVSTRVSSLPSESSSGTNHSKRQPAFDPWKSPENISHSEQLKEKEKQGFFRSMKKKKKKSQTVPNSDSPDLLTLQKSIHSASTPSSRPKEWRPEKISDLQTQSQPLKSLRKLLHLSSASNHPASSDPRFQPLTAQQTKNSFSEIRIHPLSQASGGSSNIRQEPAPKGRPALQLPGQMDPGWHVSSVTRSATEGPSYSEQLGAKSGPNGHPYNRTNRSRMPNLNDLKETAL
Assay [10] addresses Cyclin-dependent kinase 4 (Homo sapiens) (UniProt P11802). The note with it: Compound concentration 1000.0 nM.
Assay [11] has as its target Sodium-dependent noradrenaline transporter (Homo sapiens) (UniProt P23975). The note with it: Compound concentration 10.0 uM.
The target in assay [12] is T2, Muscarinic acetylcholine receptor M1 (Homo sapiens) (UniProt P11229).
T2 sequence (whole entry): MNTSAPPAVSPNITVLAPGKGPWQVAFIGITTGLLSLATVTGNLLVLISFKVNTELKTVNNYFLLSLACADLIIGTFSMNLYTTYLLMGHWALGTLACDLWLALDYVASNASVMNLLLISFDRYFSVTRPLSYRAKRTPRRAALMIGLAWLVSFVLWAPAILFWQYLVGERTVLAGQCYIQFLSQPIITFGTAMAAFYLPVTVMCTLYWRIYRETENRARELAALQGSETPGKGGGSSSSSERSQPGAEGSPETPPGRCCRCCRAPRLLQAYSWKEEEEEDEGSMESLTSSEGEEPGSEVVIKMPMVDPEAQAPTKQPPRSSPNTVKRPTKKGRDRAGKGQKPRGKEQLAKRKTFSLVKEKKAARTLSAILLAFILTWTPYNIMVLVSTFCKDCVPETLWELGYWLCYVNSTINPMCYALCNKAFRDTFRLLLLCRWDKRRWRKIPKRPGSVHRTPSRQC
The note with it: Compound concentration 10.0 uM.

The species entered for assay [13] is Homo sapiens. The assay is described as follows: Inhibition of Phosphodiesterase PDE4 at compound concentration of 10.0 uM in the Eurofins-Panlabs enzyme assay (Eurofins_assay_154000). More on the design: substrate with concentration 1.01 uM [3 H]cAMP + cAMP, incubation time 20 min, incubation temperature 25 C. Type of assay: protein assay. The note with it: Compound concentration 10.0 uM.

Assay [14] concerns the target GABA-A receptor; anion channel (Rattus norvegicus) (UniProt O09028+P15431+P18506+P18508+P19969+P20236+P23574+P23576+P28471+P28473+P30191+P62813+P63079+P63138+Q91ZM7+Q9ES14). The note with it: Compound concentration 10.0 uM.
The target in assay [15] is Mitogen-activated protein kinase 14 (Homo sapiens) (UniProt Q16539). The assay is described as follows: Inhibition of Protein Serine/Threonine Kinase, MAPK14 (p38α) at 10 µM in the Eurofins-Panlabs enzyme assay (Eurofins_assay_176610). More on the design: substrate with concentration. The note with it: Compound concentration 10.0 uM.
Assay [16] addresses Tyrosine-protein kinase Fyn (Homo sapiens) (UniProt P06241). The assay is described as follows: Inhibition of Protein Tyrosine Kinase, Fyn at 10 µM in the Eurofins-Panlabs enzyme assay (Eurofins_assay_172020). Details: substrate with concentration. The note with it: Compound concentration 10.0 uM.
Assay [17] deals with Ephrin type-A receptor 8 (Homo sapiens) (UniProt P29322). The note with it: Compound concentration 1000.0 nM.
Sequence of Ephrin type-A receptor 8 (Homo sapiens) (P29322 whole entry): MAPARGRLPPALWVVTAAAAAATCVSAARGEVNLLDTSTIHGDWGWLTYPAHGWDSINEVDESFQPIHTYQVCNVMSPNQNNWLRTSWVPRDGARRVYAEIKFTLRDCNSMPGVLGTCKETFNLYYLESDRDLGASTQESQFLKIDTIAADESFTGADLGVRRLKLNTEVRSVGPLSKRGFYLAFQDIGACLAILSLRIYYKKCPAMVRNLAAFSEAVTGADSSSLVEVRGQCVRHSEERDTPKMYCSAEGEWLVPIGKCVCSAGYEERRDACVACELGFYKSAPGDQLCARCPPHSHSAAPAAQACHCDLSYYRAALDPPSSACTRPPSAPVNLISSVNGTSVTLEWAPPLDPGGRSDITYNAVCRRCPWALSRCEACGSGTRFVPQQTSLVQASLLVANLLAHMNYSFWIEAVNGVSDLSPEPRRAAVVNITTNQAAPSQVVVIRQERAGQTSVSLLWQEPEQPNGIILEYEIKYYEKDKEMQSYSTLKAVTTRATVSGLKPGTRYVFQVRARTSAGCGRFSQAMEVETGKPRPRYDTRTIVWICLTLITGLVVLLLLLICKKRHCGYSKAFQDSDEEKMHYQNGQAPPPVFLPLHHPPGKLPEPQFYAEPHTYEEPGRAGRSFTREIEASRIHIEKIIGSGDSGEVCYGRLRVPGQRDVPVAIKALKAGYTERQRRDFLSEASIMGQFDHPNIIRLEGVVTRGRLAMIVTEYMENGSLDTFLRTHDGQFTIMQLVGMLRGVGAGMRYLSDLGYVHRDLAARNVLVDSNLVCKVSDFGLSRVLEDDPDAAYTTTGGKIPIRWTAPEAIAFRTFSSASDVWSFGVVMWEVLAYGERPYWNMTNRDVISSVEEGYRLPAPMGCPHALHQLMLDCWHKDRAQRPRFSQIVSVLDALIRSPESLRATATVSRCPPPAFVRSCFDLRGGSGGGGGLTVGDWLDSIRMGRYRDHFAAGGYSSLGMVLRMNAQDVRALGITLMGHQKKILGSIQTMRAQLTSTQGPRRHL
Assay [18] deals with Phosphatidylinositol 4-phosphate 5-kinase type-1 gamma (Homo sapiens) (UniProt O60331). The note with it: Compound concentration 1000.0 nM.
Sequence of Phosphatidylinositol 4-phosphate 5-kinase type-1 gamma (Homo sapiens) (O60331 whole entry): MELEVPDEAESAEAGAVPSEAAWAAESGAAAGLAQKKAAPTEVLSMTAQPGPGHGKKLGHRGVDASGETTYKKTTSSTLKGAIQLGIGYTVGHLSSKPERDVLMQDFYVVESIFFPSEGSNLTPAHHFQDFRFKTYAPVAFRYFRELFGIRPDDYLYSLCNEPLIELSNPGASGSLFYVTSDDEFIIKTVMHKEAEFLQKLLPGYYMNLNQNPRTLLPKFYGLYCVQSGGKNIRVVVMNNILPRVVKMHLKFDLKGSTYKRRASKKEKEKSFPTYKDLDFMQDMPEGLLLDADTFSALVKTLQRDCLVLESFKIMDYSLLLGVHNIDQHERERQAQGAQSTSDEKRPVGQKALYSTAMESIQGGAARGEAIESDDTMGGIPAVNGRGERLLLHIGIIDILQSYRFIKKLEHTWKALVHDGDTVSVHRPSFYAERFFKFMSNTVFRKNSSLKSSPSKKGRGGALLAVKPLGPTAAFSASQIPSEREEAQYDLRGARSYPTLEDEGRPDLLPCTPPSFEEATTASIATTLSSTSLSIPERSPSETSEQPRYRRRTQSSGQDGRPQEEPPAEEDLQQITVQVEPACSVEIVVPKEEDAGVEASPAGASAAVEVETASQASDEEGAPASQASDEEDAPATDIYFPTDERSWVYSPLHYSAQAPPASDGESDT
In assay [19] the target is Delta-type opioid receptor (Homo sapiens) (UniProt P41143). The note with it: Compound concentration 10.0 uM.
The target of assay [20] is Vascular endothelial growth factor receptor 3 (Homo sapiens) (UniProt P35916). The note with it: Compound concentration 1000.0 nM.
Sequence of Vascular endothelial growth factor receptor 3 (Homo sapiens) (P35916 whole entry): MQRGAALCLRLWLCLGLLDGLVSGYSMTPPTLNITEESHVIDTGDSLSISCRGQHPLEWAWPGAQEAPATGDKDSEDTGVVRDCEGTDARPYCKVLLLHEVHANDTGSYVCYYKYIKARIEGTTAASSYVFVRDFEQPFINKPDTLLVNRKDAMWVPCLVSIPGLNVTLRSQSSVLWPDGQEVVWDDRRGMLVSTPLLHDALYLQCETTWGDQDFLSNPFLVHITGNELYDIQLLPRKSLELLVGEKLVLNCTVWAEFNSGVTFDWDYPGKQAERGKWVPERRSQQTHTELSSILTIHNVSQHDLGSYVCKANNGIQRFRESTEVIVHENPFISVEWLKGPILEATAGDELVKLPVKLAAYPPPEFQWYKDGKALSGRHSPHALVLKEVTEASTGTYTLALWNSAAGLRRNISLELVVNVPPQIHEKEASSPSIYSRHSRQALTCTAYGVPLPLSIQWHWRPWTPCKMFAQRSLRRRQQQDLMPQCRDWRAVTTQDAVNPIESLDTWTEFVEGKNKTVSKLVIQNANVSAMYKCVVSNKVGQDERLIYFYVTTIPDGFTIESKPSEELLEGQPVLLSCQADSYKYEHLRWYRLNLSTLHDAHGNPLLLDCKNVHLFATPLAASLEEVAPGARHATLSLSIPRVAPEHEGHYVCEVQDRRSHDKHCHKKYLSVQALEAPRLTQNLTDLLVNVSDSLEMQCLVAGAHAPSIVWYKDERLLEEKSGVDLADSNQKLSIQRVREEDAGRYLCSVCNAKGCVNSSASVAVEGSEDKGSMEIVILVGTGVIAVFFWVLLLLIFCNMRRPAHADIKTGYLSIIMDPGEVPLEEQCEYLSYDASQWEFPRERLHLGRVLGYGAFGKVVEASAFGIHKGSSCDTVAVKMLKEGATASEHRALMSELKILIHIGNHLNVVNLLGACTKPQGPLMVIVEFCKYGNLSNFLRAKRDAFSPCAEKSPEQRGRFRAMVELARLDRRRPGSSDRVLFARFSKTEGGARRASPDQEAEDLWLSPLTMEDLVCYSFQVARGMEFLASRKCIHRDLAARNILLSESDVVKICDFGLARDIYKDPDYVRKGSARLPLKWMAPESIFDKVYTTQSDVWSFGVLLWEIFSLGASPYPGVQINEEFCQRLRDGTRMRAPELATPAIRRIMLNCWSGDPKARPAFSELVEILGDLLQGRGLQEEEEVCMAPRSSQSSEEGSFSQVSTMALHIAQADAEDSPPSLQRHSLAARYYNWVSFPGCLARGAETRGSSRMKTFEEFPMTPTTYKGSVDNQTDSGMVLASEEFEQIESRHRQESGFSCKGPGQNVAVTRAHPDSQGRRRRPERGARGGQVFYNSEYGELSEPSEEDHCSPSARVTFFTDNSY
The target in assay [21] is Insulin receptor (Homo sapiens) (UniProt P06213). The note with it: Rattus norvegicus; Compound concentration 10.0 uM.
The target of assay [22] is Tyrosine-protein kinase Lck (Homo sapiens) (UniProt P06239). The assay is described as follows: Inhibition of Protein Tyrosine Kinase, LCK at 10 µM in the Eurofins-Panlabs enzyme assay (Eurofins_assay_176020). The note with it: Compound concentration 10.0 uM.
For assay [23], the target named is Muscarinic acetylcholine receptor M3 (Homo sapiens) (UniProt P20309). The note with it: Compound concentration 10.0 uM.
The target of assay [24] is Serine/threonine-protein kinase Nek1 (Homo sapiens) (UniProt Q96PY6). The note with it: Compound concentration 1000.0 nM.
The species entered for assay [25] is Homo sapiens. The assay is described as follows: Inhibition of Tumor Necrosis Factor (TNF), Non-Selective at 10 µM in the Eurofins-Panlabs radioligand binding assay (Eurofins_assay_286510). The note with it: Compound concentration 10.0 uM.

A word on the inhibition: it is the change of the read-out against control, counted positive when it falls. Broadly, the residual activity is the signal under treatment as a percentage of the control signal. `O=C(NCc1ncc(C(F)(F)F)cc1Cl)c1ccc2c(c1)C1(CCS(=O)(=O)CC1)[C@H](C1CC1)N2S(=O)(=O)c1ccc(F)cc1` [BAY-784]: the inhibition in assay [1] is 12%; in [2], 7%; in [4], 25%; in assay [5], 9%; on Cannabinoid receptor 1 (Compound concentration 3.0 uM), 52%; at Cannabinoid receptor 1 (Compound concentration 10.0 uM), 73%. The inhibition was 16% in assay [6]; -7% in [7]; 25% in assay [8]; -4% in the assay listed under Rattus norvegicus; 14% in assay [11]; 5% in assay [12]. For the same molecule, the inhibition in the assay listed under Homo sapiens [13] was 2%; in [14] it was -9.68%; in assay [15] it was 50%; in assay [16], 5%; in [19] it was 5%; in assay [21], -1%. Also, the results for the inhibition (in assay [22]; in [23]; in the assay filed under Homo sapiens [25]) were 0%, 1% and 22%, respectively. Besides, the residual activity in [3] is 83%; in assay [9], 78%; in [10] it was 88%; in [17], 97%; in assay [18] it was 100%; in assay [20], 92%. In addition, in [24], the residual activity was 100%.
Consider `O=C(NCc1ncc(C(F)(F)F)cc1Cl)c1ccc2c(c1)C1(CCS(=O)(=O)CC1)[C@@H](C1CC1)N2S(=O)(=O)c1ccc(F)cc1` [BAY-786], for which the residual activity in [3] was 71%; in assay [9] it was 67%; in assay [10], 88%; in assay [17], 100%; in assay [18] it was 94%; in assay [20], 100%. The residual activity in assay [24] is 96%.
